Results taken from patent US5744161A, “Use of piperine as a bioavailability enhancer” (priority 1995, dated 1998).
Several values for one entry are separate records, joined by “and”; a condition that tells them apart may be missing. Equal values may be shown once. Entries after “also recorded” stand apart in the source; their conditions may differ. Read-outs that look alike come from different tables or passages of the source.

Tests used:
preweaned mice = conditions: cited from earlier work; for effect on carcinogenic activity of safarole, tannic acid or methylcholantrene: fed to injected mice; for tumor development / carcinogenic potency compared with methylcholantrene: injected, preweaned mice
[1] = 20 mg piperine daily for seven days, then 300 mg phenytoin; cited from earlier work
[2] = Blood levels of vitamin A (retinol) before and after 14 days supplementation; type: in vivo, human; conditions: 5 mg piperine with beta-carotene, in words
Procedure: Piperine known under the trademark Bioperine® consisting of 98% piperine has been evaluated in a nutrient bioavailability experiment.
A dose of 5 mg of piperine, and up to 15 mg, would most likely not interfere with the metabolism of a majority of drugs as previously discussed. […] Retinol, or vitamin A, is a product of metabolic conversion of beta-carotene, and its blood levels would likely be affected by enzymatic inhibition/stimulation with piperine.
Values of Vitamin A (retinol) before treatment and after
14 days supplementation with Bioperine ®

[3] = Margin of bioenhancing dose of piperine versus LD50 in rodents; parameters: species or system mice and rats; conditions: in vivo; maximum approx. 15 mg/person/day, no more than 20 mg/day; read-out: bioenhancing dose less than LD50 dose
Procedure: Black pepper contains approximately 5-9% piperine and is listed by the FDA as an herb which is generally recognized as safe (GRAS) for its intended use as spice, seasoning, or flavoring.
The dose of piperine considered as bioenhancing absorption of nutrients is considered 0.0004-0.15 mg of piperine/kg body weight.

Rat = conditions: cited from earlier work
[4] = co-administered drugs; cited from earlier work
rats [5] = conditions: cited from earlier work
laboratory animals = conditions: broad range of doses; cited from earlier work
Mice = conditions: cited from earlier work
V-79 lung fibroblasts = conditions: in vitro; cited from earlier work
[6] = system: benzo(a)pyrene activation; conditions: cited from earlier work
rats [7] = conditions: 100 mg and 800 mg/kg intragastric; 10 mg/kg and 100 mg/kg intra-peritoneal; cited from earlier work
[8] = system: mice treated with potent hepatotoxins and carbon tetrachloride; conditions: in vivo and in vitro experiments; cited from earlier work
[9] = system: mice treated with potent hepatotoxins tetra-hydroperoxide and carbon tetrachloride; conditions: cited from earlier work
[10] = system: rats injected with carageenin; conditions: cited from earlier work
cytochrome P-450 = conditions: cited from earlier work
[11] = with piperine, cited from earlier work
[12] = cited from earlier work
[13] = 5 to 20 times the average daily human intake
[14] = dose that significantly inhibited pregnancy
[15] = in vivo and in vitro experiments

Which “effect on carcinogenic activity of safarole, tannic acid or methylcholantrene” value (preweaned mice) does the source give for `C=C(C)[C@H]1CC=C(C)CC1` [d-limonene] here?
The value was “reduced their carcinogenic activity”.

With `Cc1ccc2cc3c(ccc4ccccc43)c3c2c1CC3` [methylcholantrene] as the compound, how does the tumor development (preweaned mice) read?
The tumor development was “developed tumors”.

With `O=C1NC(=O)C(c2ccccc2)(c2ccccc2)N1` [phenytoin] as the compound, how does the “blood concentration of phenytoin” value [1] read?
The value was “increased blood levels; also recorded: rose more rapidly”.

And the elimination of phenytoin [1]?
Its elimination of phenytoin is “dramatically prolonged the elimination time; also recorded: significantly slower elimination”.

What about the “maximum concentration of phenytoin” value [1] of the same compound?
The value was “significantly higher concentrations”.

And the “time to maximum concentration of phenytoin” value [1]?
The value was “shorter time”.

What does the source list for `O=C(/C=C/C=C/c1ccc2c(c1)OCO2)N1CCCCC1` [piperine]?
blood levels of retinol / conversion of beta-carotene to vitamin A [2]: remained unchanged throughout the experiment; also recorded: does not elevate the conversion of beta-carotene to vitamin A; selectivity ratio [3]: ≤ 40000; LD50 (Rat; Rat weanling): 585.0 mg/kg body weight; LD50 (Rat; Rat): 514.0 mg/kg body weight and 800.0 mg/kg body weight; bioavailability of a number of drugs [4]: increase the bioavailability, blood levels and efficacy of a number of drugs; clinical symptoms (rats [5]; [13]): no clinical symptoms; food intake, growth pattern, organ weights (rats [5]; [13]): did not affect; blood chemistry (RBC, WBC, differential count, hemoglobin, serum proteins, albumins, globulins, glucose, cholesterol, aminotransferases, phosphatases) (rats [5]; treated vs untreated animals): no alterations; general growth pattern, body to organ weight ratio, clinical symptomatology and blood chemistry (laboratory animals): does not cause any abnormality; anti-fertility activity (Mice; 5 mg/kg body weight/day): no anti-fertility activity; inhibition of pregnancy (Mice; 12.5 mg/kg body weight, twice a day, intraperitoneal or oral): inhibited significantly pregnancy in mice; effectiveness at pre- and post-implantation periods (Mice; 12.5 mg/kg body weight, twice a day): effective at both pre- and post-implantation periods; clinically noticeable toxicity (Mice; [14]): did not produce clinically noticeable toxicity; effect on estrogen cycle (Mice; [14]): did not interfere with the estrogen cycle; uterotropic effect (Mice; [14]): did not show uterotropic effect; effect on benzo(a)pyrene cytotoxicity (V-79 lung fibroblasts): significantly enhanced benzo(a)pyrene cytotoxicity; effect on benzo(a)pyrene cytotoxicity ([6]; by lowering benzo(a)pyrene-oxide production): decreasing benzo(a)pyrene cytotoxicity; effect on benzo(a)pyrene activation (benzo(a)pyrene-oxide production) [6]: inhibit benzo(a)pyrene activation; serum sorbitol dehydrogenase (SDH), ALT, AST and isocitrate dehydrogenase (ICD) (rats [7]): None of the treatment regiments altered significantly; enzymatic leakage of glutamate pyruvate transaminase and alkaline phosphatase [8]: reduced enzymatic leakage; hepatoprotective action [9, 15]: hepatoprotective action; lipid peroxidation [9, 15]: decrease in lipid peroxidation; reduced glutathione and total thiols in the liver ([9]; mouse, in vivo): prevented depletion of reduced glutathione and total thiols; acid phosphatase levels [10]: leveling off increased levels of acid phosphatase; lipid peroxide formation [10]: inhibiting lipid peroxide formation; decrease of cytochrome P-450 content of hepatic microsomes (cytochrome P-450; treatment of rats): approximately 20%; effect on carcinogenic activity of safarole, tannic acid or methylcholantrene (preweaned mice): did not modify their carcinogenic activity

Which results are given for `CC(C)NCC(O)COc1cccc2ccccc12` (stereo not shown) [propranolol]?
elimination rate of propranolol ([11]; 3 mg dose): did not affect the elimination rate; also recorded: without slowing down the drug elimination rate; maximum blood concentration increase of propranolol ([11]; 3 mg dose): two fold; also recorded: doubling its blood levels; plasma / blood levels of propranolol [11]: significant increase in plasma levels; also recorded: significant increase in blood levels

For `C=CCc1ccc2c(c1)OCO2` [safarole], which “increase of cytochrome P-450 content of hepatic microsomes” value (cytochrome P-450; pretreatment of rats) is on record?
The value was “about 50%”.

And the “carcinogenic potency compared with methylcholantrene” value (preweaned mice)?
Its value is “weak carcinogens”.

What about the tumor development (preweaned mice) of the same compound?
Its tumor development is “developed tumors”.

Which “carcinogenic potency compared with methylcholantrene” value (preweaned mice) does the source give for `O=C(OC[C@H]1O[C@@H](OC(=O)c2cc(O)c(O)c(OC(=O)c3cc(O)c(O)c(O)c3)c2)[C@H](OC(=O)c2cc(O)c(O)c(OC(=O)c3cc(O)c(O)c(O)c3)c2)[C@@H](OC(=O)c2cc(O)c(O)c(OC(=O)c3cc(O)c(O)c(O)c3)c2)[C@@H]1OC(=O)c1cc(O)c(O)c(OC(=O)c2cc(O)c(O)c(O)c2)c1)c1cc(O)c(O)c(OC(=O)c2cc(O)c(O)c(O)c2)c1` [tannic acid] here?
Its value is “weak carcinogens”.

And the tumor development (preweaned mice)?
The tumor development was “developed tumors”.

With `Cn1c(=O)c2[nH]cnc2n(C)c1=O` [theophylline] as the compound, how does the “maximum concentration of theophylline, increase” value ([12]; 20 mg piperine daily for seven days, then 150 mg theophylline) read?
Its value is 1.5 times higher.

What about the “blood levels of theophylline” value ([12]; 20 mg piperine for seven days prior) of the same compound?
Its value is “increased blood levels”.
